According to ChEMBL document CHEMBL1153884, “Oligonucleotide-polyamine conjugates: influence of length and position of 2'-attached polyamines on duplex stability and antisense effect” (2009):

Assays:
[1] = system: Nucleic Acid; assay: Duplex stability of RNA counter strand assessed as melting temperature; assay type: nucleic-acid assay
[2] = system: Nucleic Acid; assay: Duplex stability of DNA counter strand assessed as melting temperature; assay type: nucleic-acid assay

In the case of `Cc1cn([C@H]2C[C@H](OP(O)(=S)OC[C@H]3O[C@@H](n4cnc5c(N)ncnc54)[C@H](O)[C@@H]3OP(O)(=S)OC[C@H]3O[C@@H](n4ccc(N)nc4=O)[C@H](O)[C@@H]3OP(O)(=S)OC[C@H]3O[C@@H](n4ccc(N)nc4=O)[C@H](O)[C@@H]3OP(O)(=S)OC[C@H]3O[C@@H](n4cnc5c(=O)[nH]c(N)nc54)[C@H](O)[C@@H]3OP(O)(=S)OC[C@H]3O[C@@H](n4ccc(N)nc4=O)[C@H](O)[C@@H]3OP(O)(=S)OC[C@H]3O[C@@H](n4cnc5c(=O)[nH]c(N)nc54)[C@H](O)[C@@H]3OP(O)(=S)OC[C@H]3O[C@@H](n4cc(C)c(=O)[nH]c4=O)C[C@@H]3OP(O)(=S)OC[C@H]3O[C@@H](n4cnc5c(=O)[nH]c(N)nc54)[C@H](O)[C@@H]3OP(O)(=S)OC[C@H]3O[C@@H](n4ccc(N)nc4=O)[C@H](O)[C@@H]3OP(O)(=S)OC[C@H]3O[C@@H](n4cnc5c(=O)[nH]c(N)nc54)[C@H](O)[C@@H]3OP(O)(=S)OC[C@H]3O[C@@H](n4cnc5c(N)ncnc54)[C@H](O)[C@@H]3OP(O)(=S)OC[C@H]3O[C@@H](n4ccc(N)nc4=O)[C@H](O)[C@@H]3OP(O)(=S)OC[C@H]3O[C@@H](n4ccc(N)nc4=O)[C@H](O)[C@@H]3OP(O)(=S)OC[C@H]3O[C@@H](n4ccc(N)nc4=O)[C@H](O)[C@@H]3OP(O)(=S)OC[C@H]3O[C@@H](n4cc(C)c(=O)[nH]c4=O)C[C@@H]3OP(O)(=S)OC[C@H]3O[C@@H](n4ccc(N)nc4=O)[C@H](O)[C@@H]3OP(O)(=S)OC[C@H]3O[C@@H](n4ccc(=O)[nH]c4=O)[C@H](NCCCNCCCCNCCCN)[C@@H]3O)[C@@H](CO)O2)c(=O)[nH]c1=O` (stereo partly drawn), the Tm [1] is reported as 53.2 °C and the Tm [2] is reported as 74.3 °C.

With `Cc1cn([C@H]2C[C@H](OP(=O)(O)OC[C@H]3O[C@@H](n4cnc5c(N)ncnc54)[C@H](O)[C@@H]3OP(=O)(O)OC[C@H]3O[C@@H](n4ccc(N)nc4=O)[C@H](O)[C@@H]3OP(=O)(O)OC[C@H]3O[C@@H](n4ccc(N)nc4=O)[C@H](O)[C@@H]3OP(=O)(O)OC[C@H]3O[C@@H](n4cnc5c(=O)[nH]c(N)nc54)[C@H](O)[C@@H]3OP(=O)(O)OC[C@H]3O[C@@H](n4ccc(N)nc4=O)[C@H](O)[C@@H]3OP(=O)(O)OC[C@H]3O[C@@H](n4cnc5c(=O)[nH]c(N)nc54)[C@H](O)[C@@H]3OP(=O)(O)OC[C@H]3O[C@@H](n4ccc(=O)[nH]c4=O)[C@H](NCCCNCCCCNCCCN)[C@@H]3OP(=O)(O)OC[C@H]3O[C@@H](n4cnc5c(=O)[nH]c(N)nc54)[C@H](O)[C@@H]3OP(=O)(O)OC[C@H]3O[C@@H](n4ccc(N)nc4=O)[C@H](O)[C@@H]3OP(=O)(O)OC[C@H]3O[C@@H](n4cnc5c(=O)[nH]c(N)nc54)[C@H](O)[C@@H]3OP(=O)(O)OC[C@H]3O[C@@H](n4cnc5c(N)ncnc54)[C@H](O)[C@@H]3OP(=O)(O)OC[C@H]3O[C@@H](n4ccc(N)nc4=O)[C@H](O)[C@@H]3OP(=O)(O)OC[C@H]3O[C@@H](n4ccc(N)nc4=O)[C@H](O)[C@@H]3OP(=O)(O)OC[C@H]3O[C@@H](n4ccc(N)nc4=O)[C@H](O)[C@@H]3OP(=O)(O)OC[C@H]3O[C@@H](n4cc(C)c(=O)[nH]c4=O)C[C@@H]3OP(=O)(O)OC[C@H]3O[C@@H](n4ccc(N)nc4=O)[C@H](O)[C@@H]3OP(=O)(O)OC[C@H]3O[C@@H](n4ccc(=O)[nH]c4=O)[C@H](NCCCNCCCCNCCCN)[C@@H]3O)[C@@H](CO)O2)c(=O)[nH]c1=O` the Tm [1] was 57.8 °C and the Tm [2] was 74.5 °C.

Compound `Cc1cn([C@H]2C[C@H](OP(O)(=S)OC[C@H]3O[C@@H](n4cnc5c(N)ncnc54)[C@H](O)[C@@H]3OP(O)(=S)OC[C@H]3O[C@@H](n4ccc(N)nc4=O)[C@H](O)[C@@H]3OP(O)(=S)OC[C@H]3O[C@@H](n4ccc(N)nc4=O)[C@H](O)[C@@H]3OP(O)(=S)OC[C@H]3O[C@@H](n4cnc5c(=O)[nH]c(N)nc54)[C@H](O)[C@@H]3OP(O)(=S)OC[C@H]3O[C@@H](n4ccc(N)nc4=O)[C@H](O)[C@@H]3OP(O)(=S)OC[C@H]3O[C@@H](n4cnc5c(=O)[nH]c(N)nc54)[C@H](O)[C@@H]3OP(O)(=S)OC[C@H]3O[C@@H](n4ccc(=O)[nH]c4=O)[C@H](NCCCNCCCCNCCCN)[C@@H]3OP(O)(=S)OC[C@H]3O[C@@H](n4cnc5c(=O)[nH]c(N)nc54)[C@H](O)[C@@H]3OP(O)(=S)OC[C@H]3O[C@@H](n4ccc(N)nc4=O)[C@H](O)[C@@H]3OP(O)(=S)OC[C@H]3O[C@@H](n4cnc5c(=O)[nH]c(N)nc54)[C@H](O)[C@@H]3OP(O)(=S)OC[C@H]3O[C@@H](n4cnc5c(N)ncnc54)[C@H](O)[C@@H]3OP(O)(=S)OC[C@H]3O[C@@H](n4ccc(N)nc4=O)[C@H](O)[C@@H]3OP(O)(=S)OC[C@H]3O[C@@H](n4ccc(N)nc4=O)[C@H](O)[C@@H]3OP(O)(=S)OC[C@H]3O[C@@H](n4ccc(N)nc4=O)[C@H](O)[C@@H]3OP(O)(=S)OC[C@H]3O[C@@H](n4cc(C)c(=O)[nH]c4=O)C[C@@H]3OP(O)(=S)OC[C@H]3O[C@@H](n4ccc(N)nc4=O)[C@H](O)[C@@H]3OP(O)(=S)OC[C@H]3O[C@@H](n4ccc(=O)[nH]c4=O)[C@H](NCCCNCCCCNCCCN)[C@@H]3O)[C@@H](CO)O2)c(=O)[nH]c1=O` (stereo partly drawn) has a Tm [1] of 53 °C and a Tm [2] of 66.8 °C.

For `Cc1cn([C@H]2C[C@H](OP(=O)(O)OC[C@H]3O[C@@H](n4cnc5c(N)ncnc54)[C@H](O)[C@@H]3OP(=O)(O)OC[C@H]3O[C@@H](n4ccc(N)nc4=O)[C@H](O)[C@@H]3OP(=O)(O)OC[C@H]3O[C@@H](n4ccc(N)nc4=O)[C@H](O)[C@@H]3OP(=O)(O)OC[C@H]3O[C@@H](n4cnc5c(=O)[nH]c(N)nc54)[C@H](O)[C@@H]3OP(=O)(O)OC[C@H]3O[C@@H](n4ccc(N)nc4=O)[C@H](O)[C@@H]3OP(=O)(O)OC[C@H]3O[C@@H](n4cnc5c(=O)[nH]c(N)nc54)[C@H](O)[C@@H]3OP(=O)(O)OC[C@H]3O[C@@H](n4cc(C)c(=O)[nH]c4=O)C[C@@H]3OP(=O)(O)OC[C@H]3O[C@@H](n4cnc5c(=O)[nH]c(N)nc54)[C@H](O)[C@@H]3OP(=O)(O)OC[C@H]3O[C@@H](n4ccc(N)nc4=O)[C@H](O)[C@@H]3OP(=O)(O)OC[C@H]3O[C@@H](n4cnc5c(=O)[nH]c(N)nc54)[C@H](O)[C@@H]3OP(=O)(O)OC[C@H]3O[C@@H](n4cnc5c(N)ncnc54)[C@H](O)[C@@H]3OP(=O)(O)OC[C@H]3O[C@@H](n4ccc(N)nc4=O)[C@H](O)[C@@H]3OP(=O)(O)OC[C@H]3O[C@@H](n4ccc(N)nc4=O)[C@H](O)[C@@H]3OP(=O)(O)OC[C@H]3O[C@@H](n4ccc(N)nc4=O)[C@H](O)[C@@H]3OP(=O)(O)OC[C@H]3O[C@@H](n4cc(C)c(=O)[nH]c4=O)C[C@@H]3OP(=O)(O)OC[C@H]3O[C@@H](n4ccc(N)nc4=O)[C@H](O)[C@@H]3OP(=O)(O)OC[C@H]3O[C@@H](n4cc(C)c(=O)[nH]c4=O)C[C@@H]3O)[C@@H](CO)O2)c(=O)[nH]c1=O`, the Tm [1] was 65.3 °C and the Tm [2] was 79 °C.
